Results on 16 compounds are retold here after article PMC9879200, “Dual-target ligand discovery for Alzheimer’s disease: triphenylphosphoranylidene derivatives as inhibitors of acetylcholinesterase and β-amyloid aggregation” (Journal of Enzyme Inhibition and Medicinal Chemistry, 2023).

“Also recorded” adds a separate entry of the source. Like-named read-outs stand apart in the source and are kept apart here.

For data set [1], the target named is T1, AChE (Homo sapiens, UniProt P22303).
T1 construct: purchased Bioassays System (BioAssay Systems) IACE-100
Put plainly: In vitro AChE inhibition assay (improved Ellman spectrophotometric method). The class given is biochemical. The text has this: (§1) For AChE and BuChE inhibition experiments, Ellman et al. method’s was applied with a few minor adjustments. According to the manufacturer’s recommendations, the QuantiChromTM AChE Inhibitor Screening Kit (IACE-100), Bioassays System, and the Cholinesterase (ChE) Activity Assay Kit, LifeSpan BioSciences, Inc., USA, were used to measure the inhibition of AChE and BuChE, respectively. […] The relationship between product colour and enzyme activity after inhibition is established. Substrates included butyrylthiocholine iodide and acetylthiocholine iodide.

For a further data set, the target named is T2, BuChE enzyme (Homo sapiens, UniProt P06276).
T2 construct: purchased LifeSpan BioSciences, Inc., USA
The data set is described as follows: In vitro BuChE inhibition assay (modified Ellman spectrophotometric method). The class given is biochemical. As for the experimental part:
This was carried out by using the modified Ellman spectrophotometric method.
as §1

The next data set has as its target T3, MMP-2 (Homo sapiens, UniProt P08253).
T3 construct: purchased Abcam ab139447
T3 sequence (P08253 110-660): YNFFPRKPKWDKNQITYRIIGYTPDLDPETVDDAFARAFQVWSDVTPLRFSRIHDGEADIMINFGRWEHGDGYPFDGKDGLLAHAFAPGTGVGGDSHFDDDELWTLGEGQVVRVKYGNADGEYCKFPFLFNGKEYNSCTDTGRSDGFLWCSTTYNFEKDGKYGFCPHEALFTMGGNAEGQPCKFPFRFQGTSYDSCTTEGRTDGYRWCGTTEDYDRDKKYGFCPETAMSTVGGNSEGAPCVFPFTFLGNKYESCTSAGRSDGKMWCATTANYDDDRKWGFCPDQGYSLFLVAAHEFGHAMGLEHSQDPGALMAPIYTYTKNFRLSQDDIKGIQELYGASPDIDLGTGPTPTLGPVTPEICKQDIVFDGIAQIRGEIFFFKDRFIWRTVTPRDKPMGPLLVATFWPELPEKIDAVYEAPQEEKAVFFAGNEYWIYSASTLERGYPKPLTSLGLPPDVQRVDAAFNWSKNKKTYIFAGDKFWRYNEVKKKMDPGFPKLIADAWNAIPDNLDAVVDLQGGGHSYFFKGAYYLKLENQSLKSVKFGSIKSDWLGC
The data set is described as follows: MMP-2 inhibitor screening assay (fluorometric, FRET peptide). It is filed as biochemical. The text has this:
Matrix Metalloproteinase-2 (MMP-2) is known for its impact on neurological disorders as AD[44–46].
This assay kit uses a fluorescence resonance energy transfer (FRET) peptide as a generic MMP activity indicator. In the intact FRET peptide, the fluorescence of one part is quenched by another. After cleavage into two separate fragments by MMPs, the fluorescence is recovered.

The target in a further data set is T4, Aβ1–42 (Homo sapiens, UniProt P05067).
T4 construct: the beta amyloid 1–42 (Aβ42) Ligand Screening Assay Kit (Fluorometric) (K570-100); purchased BioVision K570-100
The data set is described as follows: Self-induced Aβ1–42 aggregation inhibition assay (Thioflavin T, fluorometric). It is filed as biochemical. As to conditions: Thioflavin T fluorescence; read-out: Self-induced Aβ1–42 aggregation IC50 (nM) ± SD.

The target of data set [2] is T1, AChE. Put plainly: Kinetic study of AChE inhibition (Lineweaver-Burk and Dixon plots). It is filed as biochemical.
Text: Figure 5.
as §1

A short description of data set [3]: SH-SY5Y neuroblastoma cell toxicity (MTT assay). As to conditions: human, SH-SY5Y neuroblastoma cells. How it is done: (§2) The cell viability was determined through using MTT assay.
(§3) The American Type Culture Collection provided the cells (Rockville, MD). […] The chemical was applied to the cells at various doses ([…]) for 48 h. The MTT colorimetric assay’s described methodology was then used[57].

The subject of data set [4] is AChE (IC50 in the denominator). The data set is described as follows: SH-SY5Y neuroblastoma cell toxicity (MTT assay). As to conditions: human, SH-SY5Y neuroblastoma cells. As for the experimental part:
as §2, §3

In data set [5] the test system is scopolamine-induced memory impairment in mice. The data set is described as follows: Y-maze test, scopolamine-induced amnesia model. The class given is in vivo.
Protocol: In order to test potential anticholinergic medication candidates, the in vivo scopolamine model was employed to cause memory impairment in mice. Scopolamine can inhibit the cholinergic system by antagonising the muscarinic receptor[47].
Animal working memory is assessed using the hippocampal-dependent Y-maze test. Working memory is measured using the spontaneous alternation score[48].
In the current investigation, adult Swiss Albino mice (8–10 weeks old, weighing 25–30 g) from the National Research Centre were employed. For 1 week, animals were acclimated in a room with constant illumination, humidity, and temperature (22 °C ± 1 °C, 60%, and 12 h of light/dark cycle). Throughout the experiment, unlimited amounts of food and water were given. Mice were kept in open, opaque propylene cages with good ventilation and wide access to a variety of forages.
(§4) Healthy mice were randomised into four groups of six mice each after a 1-week adaption period, at random, as follows: Group 1 is the control group, which received saline solution with 10% Tween 80. […] Following the injection of scopolamine, the behavioural study will be examined 30 min later.
In the Y-maze, a test of working memory, the animals’ capacity for spontaneous alternation was evaluated[49]. Three equally spaced horizontal arms measuring 120°, 45 cm long, and 16 cm high make up the Y-maze. Each mouse was put into one of the three arms of the maze and given free rein to wander from arm to arm. Both the number and order of arm inputs were recorded. The spontaneous alternation is derived from the following equation as a measure of memory performance: (Alternations/Total Arm Entries) − 2 × 100 = percent alternation. The student’s t-test was used to assess the data.
Data set [6] deals with scopolamine-induced cognitive impairment. The data set is described as follows: Step-down passive avoidance test, scopolamine-induced amnesia model. It is filed as in vivo. As to conditions: mice; for transfer latency time (TLT), passive avoidance test: 1 mg/kg orally 30 min before scopolamine 3 mg/kg intraperitoneal.
Protocol: In order to test potential anticholinergic medication candidates, the in vivo scopolamine model was employed to cause memory impairment in mice.
For 1 week, animals were acclimated in a room with constant illumination, humidity, and temperature (22 °C ± 1 °C, 60%, and 12 h of light/dark cycle). Throughout the experiment, unlimited amounts of food and water were given. Mice were kept in open, opaque propylene cages with good ventilation and wide access to a variety of forages.
as §4
The passive avoidance test was conducted in a device that had two independent compartments split by a sliding door. There was a connection between the illuminated chamber and a dark compartment with an electrifiable grid floor, which was free of electric impulses. Each mouse was initially placed in the lit chamber so that it could become accustomed to it. The sliding door is then opened, allowing access to the enclosed, gloomy space. The door was shut once the animal had entered the chamber entirely, and it was then shocked with an electric shock lasting two seconds (24 V, 0.5 mA). The latency time to enter the dark container was measured to gauge working memory (Training trial). Twenty-four hours after the training trial, a test trial was carried out without application of the electric foot shock[50].
Setting [7] is: read-out: AChE IC50 (nM) ± SD, average of triplicate determination, Ellman method, pH 7.5.

T1 sequence (P22303 32-614): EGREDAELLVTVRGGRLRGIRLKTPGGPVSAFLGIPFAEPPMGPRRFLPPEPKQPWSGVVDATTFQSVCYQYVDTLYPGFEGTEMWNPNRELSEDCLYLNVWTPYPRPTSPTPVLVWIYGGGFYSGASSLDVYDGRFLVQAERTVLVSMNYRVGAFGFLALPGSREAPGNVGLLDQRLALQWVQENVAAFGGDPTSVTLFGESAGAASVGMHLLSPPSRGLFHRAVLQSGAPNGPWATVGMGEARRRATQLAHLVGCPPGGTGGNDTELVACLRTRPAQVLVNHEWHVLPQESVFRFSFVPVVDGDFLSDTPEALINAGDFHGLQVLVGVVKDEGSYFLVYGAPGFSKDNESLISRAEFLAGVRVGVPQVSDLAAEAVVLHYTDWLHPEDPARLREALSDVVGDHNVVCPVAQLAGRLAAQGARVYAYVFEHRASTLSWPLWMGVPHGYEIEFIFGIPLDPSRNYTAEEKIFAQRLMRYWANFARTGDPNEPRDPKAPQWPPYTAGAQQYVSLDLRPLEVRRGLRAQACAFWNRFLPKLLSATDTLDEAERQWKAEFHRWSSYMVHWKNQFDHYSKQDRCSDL
T2 sequence (P06276 29-602): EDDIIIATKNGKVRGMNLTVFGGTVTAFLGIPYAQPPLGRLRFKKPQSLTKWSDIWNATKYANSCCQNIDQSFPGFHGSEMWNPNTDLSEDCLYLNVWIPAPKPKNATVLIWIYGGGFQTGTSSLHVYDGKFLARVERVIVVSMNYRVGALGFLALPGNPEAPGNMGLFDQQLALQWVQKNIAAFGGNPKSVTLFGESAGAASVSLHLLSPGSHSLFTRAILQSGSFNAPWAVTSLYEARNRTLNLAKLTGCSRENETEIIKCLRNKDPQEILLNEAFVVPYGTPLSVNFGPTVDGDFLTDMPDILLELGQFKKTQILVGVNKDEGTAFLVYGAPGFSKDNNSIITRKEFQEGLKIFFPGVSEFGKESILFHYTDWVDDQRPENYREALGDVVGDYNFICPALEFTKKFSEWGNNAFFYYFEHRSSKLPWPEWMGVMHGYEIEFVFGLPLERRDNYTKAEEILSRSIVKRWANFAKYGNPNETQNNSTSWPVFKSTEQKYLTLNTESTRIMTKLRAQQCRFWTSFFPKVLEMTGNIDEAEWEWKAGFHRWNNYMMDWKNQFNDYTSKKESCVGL
T4 sequence (P05067 672-713 limits assumed): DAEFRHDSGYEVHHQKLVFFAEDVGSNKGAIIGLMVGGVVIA

On AChE [1], `C[Si]1(Cl)C=CC(=Nc2ccccc2)C1=P(c1ccccc1)(c1ccccc1)c1ccccc1` (stereo not shown) [5a, N-(1-chloro-1-methyl-2-(triphenylphosphoranylidene)-1H-silol-3(2H)-ylidene)aniline] came in with an IC50 of 206 nM.

Take `C[Si]1(Cl)C=CC(=O)C1=P(c1ccccc1)(c1ccccc1)c1ccccc1` (stereo not shown) [5b, 1-Chloro-1-methyl-2-(triphenylphosphoranylidene)-1H-silol-3(2H)-one]: on AChE [1], half-maximal inhibition (IC50) required 345 nM.

At AChE [1], `C=CC(C(=O)OC)=P(c1ccccc1)(c1ccccc1)c1ccccc1` [8b, Methyl 2-(triphenylphosphoranylidene)but-3-enoate] had an IC50 of 158 nM.

In the case of `C=CC(C(C)=O)=P(c1ccccc1)(c1ccccc1)c1ccccc1` [8c, 3-(Triphenylphosphoranylidene)pent-4-en-2-one], the half-maximal inhibitory concentration (IC50) at AChE [1] is 97 nM; on BuChE enzyme it was 84.8 ± 2.91 nM; against MMP-2 it was 724 ± 16.5 nM; at Aβ1–42, 302 ± 11.4 nM. In addition, on BuChE enzyme (Selectivity index = (BuChE IC50)/(AChE IC50)), the Selectivity index amounted to 0.87. Also, the “type of AChE inhibition” value at AChE [2] (Lineweaver-Burk plot, Vmax and Km patterns) is “uncompetitively; also recorded: uncompetitive”. Moreover, the inhibitory constant (Ki) on AChE [2] (estimate from Dixon plot, read-out: inhibitory constant, Ki) was 15.7 nM. The compound further gave a CC50 at 48 h in [3] of 7310 ± 260 nM. For the same compound, the selectivity ratio at 48 h in data set [4] worked out at 75.3. In addition, in [5] (mice, 1 mg/kg orally 30 min before scopolamine 3 mg/kg intraperitoneal), the “Y-maze test, percent alternations” value came out at 83.9%. The “transfer latency time (TLT), passive avoidance test” value in [6] is on record as 45.2 s.

The compound `C=CC(C(=O)c1ccccc1)=P(c1ccccc1)(c1ccccc1)c1ccccc1` [8d, 1-Phenyl-2-(triphenylphosphoranylidene)but-3-en-1-one] registered an IC50 at AChE [1] of 426 nM.

At AChE [1], `c1ccc(N=c2c(-c3ccccc3)c(-c3ccccc3)c2=P(c2ccccc2)(c2ccccc2)c2ccccc2)cc1` [11a, N-(2,3-diphenyl-4-(triphenylphosphoranylidene)cyclobut-2-en-1-ylidene)aniline] came in with an IC50 of 185 nM.

`O=c1c(-c2ccccc2)c(-c2ccccc2)c1=P(c1ccccc1)(c1ccccc1)c1ccccc1` [11b, 2,3-Diphenyl-4-(triphenylphosphoranylidene)cyclobut-2-enone] came in with an IC50 against AChE [1] of 508 nM.

The compound `CCc1c(CC)c(=P(c2ccccc2)(c2ccccc2)c2ccccc2)c1=O` [13b, 2,3-Diethyl-4-(triphenylphosphoranylidene)cyclobut-2-enone] had a half-inhibitory concentration (IC50) against AChE [1] of 249 nM.

The compound `C[Si]1(Cl)C=C/C(=N\c2ccccc2)C1=P(c1ccccc1)(c1ccccc1)c1ccccc1` (stereo not shown) [C00001] showed a half-inhibitory concentration (IC50) on AChE [1] of 206 ± 7.33 nM.

Consider `c1ccc(/N=c2/c(-c3ccccc3)c(-c3ccccc3)c2=P(c2ccccc2)(c2ccccc2)c2ccccc2)cc1` [C00002], for which the concentration for half-maximal inhibition (IC50) against AChE [1] was found to be 185 ± 9.22 nM.

Turning to `CCc1c(CC)/c(=N/c2ccccc2)c1=P(c1ccccc1)(c1ccccc1)c1ccccc1` [C00006], inhibition on AChE [1] was half-maximal at 507 ± 22.1 nM (IC50).

For the compound `CCc1c(CC)c(=P(c2ccccc2)(c2ccccc2)c2ccccc2)c1=O` [C00008], the half-maximal inhibitory concentration (IC50) on AChE [1] (setting [7]) was found to be 249 ± 10.4 nM.

As for `C[Si](C)(C)c1c([Si](C)(C)C)c(=P(c2ccccc2)(c2ccccc2)c2ccccc2)c1=O` [C00010], the IC50 on AChE [1] (setting [7]) is 113 ± 4.82 nM.

As for `COc1cc2c(cc1OC)C(=O)C(CC1CCN(Cc3ccccc3)CC1)C2` (stereo not shown) [Donepezil], the “Y-maze test, percent alternations” value in data set [5] (1 mg/kg) is listed as 80.7%. Also, the “transfer latency time (TLT), passive avoidance test” value in data set [6] is 44.0 s.

For the compound `CN1[C@@H]2C[C@@H](OC(=O)[C@H](CO)c3ccccc3)C[C@H]1[C@@H]1O[C@@H]12` [Scopolamine], in data set [5] (mice, scopolamine 3 mg/kg intraperitoneal alone, control group 82.1), the “Y-maze test, percent alternations, scopolamine model group” value is recorded as 51.2%. The “transfer latency time (TLT), passive avoidance test, scopolamine-treated group” value in data set [6] (scopolamine 3 mg/kg intraperitoneal alone) turned out to be 27.2 s.

For the compound `C[Si](C)(C)c1c([Si](C)(C)C)c(=P(c2ccccc2)(c2ccccc2)c2ccccc2)c1=O` [compound 15, 2,3-Bis(trimethylsilyl)-4-(triphenylphosphoranylidene)cyclobut-2-enone], at AChE [1], the IC50 amounted to 113 nM.
